Assay [1] in a line: Antiplatelet activity in rabbit platelet rich plasma assessed as inhibition of ADP-induced aggregation at 0.05 mM treated for 5 mins prior to ADP-challenge relative to control. Type of assay: functional. The note with it: Oryctolagus cuniculus.
The nature of assay [2]: Antiplatelet activity in rabbit platelet rich plasma assessed as inhibition of ADP-induced aggregation at 0.1 mM treated for 5 mins prior to ADP-challenge relative to control. In kind it is functional. The note with it: Oryctolagus cuniculus.
A short description of assay [3]: Antiplatelet activity in rabbit platelet rich plasma assessed as inhibition of ADP-induced aggregation at 0.2 mM treated for 5 mins prior to ADP-challenge relative to control. In kind it is functional. The note with it: Oryctolagus cuniculus.
The subject of assay [4] is ECV-304. In words: Ratio of ligustrazine EC50 to compound EC50 for human ECV304 cells. In kind it is functional.
A short description of assay [5]: Cytoprotective activity in H2O2-induced human ECV304 cells assessed as proliferation rate at 50 uM incubated for 24 hrs prior to H2O2-challenge measured after 12 hrs by MTT assay relative to control. In kind it is functional. The note with it: ECV-304, read-out: Activity. For orientation: Tetrazolium assays rely on reduction of a dye to a coloured formazan, in cell work by metabolically active cells.

A short description of assay [6]: Cytoprotective activity in H2O2-induced human ECV304 cells assessed as proliferation rate incubated for 24 hrs prior to H2O2-challenge measured after 12 hrs by MTT assay. The note with it: ECV-304. Type of assay: functional, cell-based.
The nature of assay [7]: Cytoprotective activity in H2O2-induced human ECV304 cells assessed as proliferation rate at 12.5 uM incubated for 24 hrs prior to H2O2-challenge measured after 12 hrs by MTT assay relative to control. In kind it is functional. As to conditions: ECV-304, read-out: Activity.
Assay [8] in a line: Cytoprotective activity in H2O2-induced human ECV304 cells assessed as proliferation rate at 100 uM incubated for 24 hrs prior to H2O2-challenge measured after 12 hrs by MTT assay relative to control. In kind it is functional. The note with it: ECV-304, read-out: Activity.
Assay [9] can be described thus: Cytoprotective activity in H2O2-induced human ECV304 cells assessed as proliferation rate at 25 uM incubated for 24 hrs prior to H2O2-challenge measured after 12 hrs by MTT assay relative to control. Type of assay: functional. The note with it: ECV-304, read-out: Activity.
Assay [10] in a line: Antiplatelet activity in rabbit platelet rich plasma assessed as inhibition of ADP-induced aggregation treated for 5 mins prior to ADP-challenge. In kind it is functional. The note with it: Oryctolagus cuniculus.
Assay [11] can be described thus: Antiplatelet activity in rabbit platelet rich plasma assessed as inhibition of ADP-induced aggregation at 0.4 mM treated for 5 mins prior to ADP-challenge relative to control. Type of assay: functional. The note with it: Oryctolagus cuniculus.

Bounds are passed on as bounds.

The inhibition is the drop in the measured response relative to a control, in per cent. One may read the EC50 as the concentration giving half of the maximal effect. Usually IC50 stands for the concentration needed to halve the response being measured.

Regarding `Cc1nc(C)c(COC(=O)CCCC[C@@H]2CCSS2)nc1C`, the inhibition at 50 µM in [1] was 18.8%. In addition, in assay [2], the inhibition at 100 µM worked out at 13.4%. The inhibition at 200 µM in assay [3] is 29%. Besides, the “Ratio EC50” value in [4] is given as 150. The growth at 50 µM in [5] worked out at 160%. For the same molecule, in assay [6], the EC50 is 4 µM. Also, the growth at 12.5 µM in assay [7] is -60%. The growth at 100 µM in assay [8] was found to be 206%. Further, in assay [9], the growth at 25 µM is 71.4%. For the same molecule, in [10], the IC50 is more than 2000 µM. The inhibition at 400 µM in assay [11] amounted to 27.6%.

Turning to `CCOC(=O)c1ccccc1OCc1nc(C)c(C)nc1C`, in [1], the inhibition at 50 µM is 8.7%. Moreover, in [2], the inhibition at 100 µM amounted to 10.8%. For the same molecule, the inhibition at 200 µM in [3] was found to be 16.8%. The growth at 50 µM in [5] amounted to 19.2%. Besides, the 50% effective concentration (EC50) in assay [6] amounted to 1000 µM. In addition, the growth at 12.5 µM in assay [7] is 17.3%. The growth at 100 µM in [8] was 20%. For the same molecule, the growth at 25 µM in assay [9] came to 18.1%. The IC50 in assay [10] came to 2000 µM. In assay [11], the inhibition at 400 µM is 21.2%.

The record behind these values is ChEMBL document CHEMBL3132783, “Design, synthesis and biological evaluation of novel ligustrazinylated derivatives as potent cardiovascular agents” (Medchemcomm, 2013).
